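The compound was tested at five concentrations on cells cultured in 96-well plates, with a 48-hour exposure period. Here, GI50 denotes the concentration required for 50% inhibition of growth. TGI marks complete inhibition of growth.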
What was measured:
Experiment in all cases: inhibition of tumour cell growth, NCI panel, 48 h
[1] = test system: SR leukemia
[2] = test system: ACHN renal
[3] = test system: NCI-H23 lung
[4] = test system: HCT-15 colon
[5] = test system: SN12C renal
[6] = test system: A549 NSCLC
[7] = test system: EKVX NSCLC
[8] = test system: LOX IMVI melanoma
[9] = test system: CCRF-CEM leukemia
[10] = test system: MDA-MB-435

SMILES	TGI [1] [µM]	TGI [2] [µM]	TGI [3] [µM]	TGI [4] [µM]	TGI [5] [µM]	TGI [6] [µM]	TGI [7] [µM]	TGI [8] [µM]	TGI [9] [µM]	TGI [10] [µM]	GI50 [8]	GI50 [2] [µM]	GI50 [3]	GI50 [4]	GI50 [5]	GI50 [10] [µM]	GI50 [9]	GI50 [6]	GI50 [7] [µM]	GI50 [1] [µM]
COc1ccc(C2OC(=O)c3c2ccc2ccccc32)c(C)c1 (stereo not given)	> 100	> 100	> 100	19.9	88.2	73.4	> 100													
Cc1cc(NS(=O)(=O)c2ccc(Nc3c4ccccc4nc4c(C(=O)Nc5ccc(S(=O)(=O)N=C(N)N)cc5)cccc34)cc2)no1		> 100	> 100	> 100	> 100	> 100	> 100	> 100	> 100											
C(=N\Nc1nnc2c(n1)[nH]c1ccccc12)/c1cccnc1		> 100	> 100	> 100	> 100	> 100	> 100	> 100		> 100										
Cn1cnc([N+](=O)[O-])c1Sc1ccccn1	> 100	> 100	> 100		> 100	> 100	> 100	> 100	> 100											
CC(CN=C(CC(=O)c1ccc(Br)cc1)c1ccccc1)N=C(CC(=O)c1ccc(Br)cc1)c1ccccc1 (stereo not given)		> 100	> 100	> 100	> 100	> 100	> 100	> 100	> 100	> 100	66.1 µM	48	8.9 µM	43.6 µM	64.1 µM	41.8	20.1 µM	7.6 µM	21	
C[Si](C)(C)/C=C/CCC(C=O)(CCCl)c1ccccc1 (stereo not given)		73.2	> 100	46.1	> 100	98.4	> 100	36.2	> 100											
O=C1C2c3[nH]c4ccccc4c3[C@@H]3CCCCCCCCCCC3C2C(=O)N1c1ccccc1 (stereo not given in full)	43.3	> 100	37.5	> 100	54	62.4	> 100	43.3												
COC(=O)C[CH](C(=O)OC)[Ge]([CH3])([CH3])[S]c1ccccc1 (stereo not given)		36.6	64.7	27.6	32	> 100	75.2	17.1	6.25		4.92 µM	18.4	22.9 µM	13.2 µM	16 µM		1.67 µM	43.9 µM	16.1	
Cc1c[nH]c2c1C13CC1CN(C(=O)c1cc4cc(NC(=O)c5cc6ccccc6o5)ccc4[nH]1)C3=CC2=O (stereo not given)	< 0.001		< 0.001	< 0.001	< 0.001			< 0.001	0.0682		> 1.17 ng/mL		> 1.17 ng/mL	> 1.17 ng/mL	> 1.17 ng/mL		> 1.17 ng/mL	> 1.17 ng/mL		
CC1=NNC(=NCCN(C)C)C/C1=C/c1ccccc1Cl		> 100	> 100	> 100	> 100	> 100	> 100	> 100												
N/C(=N\NS(=O)(=O)c1ccccc1)Oc1ccc(Cl)cc1	> 100	> 100	> 100	> 100	> 100	> 100	> 100	> 100	> 100											
COc1cc([C@@H]2c3cc4c(cc3[C@@H](NC(=O)c3ccc(N)cc3)C3COC(=O)[C@@H]32)OCO4)cc(OC)c1O (stereo not given in full)		4.9	4.97	32	4.54	12.8	23.7	18.7	13.1											
O=[N+]([O-])c1cccc([N+](=O)[O-])c1S(=O)(=O)c1ccccc1		3.92	50.7	4.1	12.3	41.8	42.8	3.7		14.6										
O=NC1c2cccc3cccc(c23)C1N=O (stereo not given)		3.9	32.3	5.02		17	6.76	5.6	4.25	25.7										
COc1ccc(SC2c3cc(OC)c(OC)cc3Oc3nc(N)c(C#N)c(N)c32)cc1 (stereo not given)		3.12	3.01	2.23			3.34	1.86		2.92	0.585 µM	1.74	1.45 µM	0.973 µM		1.5			1.74	
CC(=O)Oc1ccc(OC(C)=O)c2ccccc12	11.7	19.2	27.5	34.5	27.5	> 100	24.7	30.7		15	14.8 µM	6.37	12.7 µM	14.3 µM	14 µM	3.86		34.9 µM	10.4	3.19
Cc1nc(C)c(C(=O)Nc2cccc3c2C(=O)NC3=O)cc1C(=O)Nc1cccc2c1C(=O)NC2=O	> 100	> 100	> 100	> 100	> 100	> 100	> 100	> 100	> 100											
c1ccc2c(CNCCCCCCNCc3cccc4ccccc34)cccc2c1	4.47	29.5	30.1	19.8	25.3	32.3	26.4	3.5	9.62											
CC#C[C@@]1(O)CCCC[C@@H]1O		> 100	> 100	> 100	> 100	> 100	> 100	> 100	> 100											
N#Cc1cccc(NC(=O)c2ccc(C(=O)O)c(C(=O)c3ccc(C(=O)O)c(C(=O)Nc4cccc(C#N)c4)c3)c2)c1			> 100	> 100	> 100	> 100	> 100	> 100	> 100											
Nc1nc2c(ncn2C2OC(CO)C(O)C2N)c(=O)[nH]1 (stereo not given)		> 100	> 100	> 100	> 100	> 100		> 100	> 100											

SMILES	TGI [1] [µM]	TGI [2] [µM]	TGI [3] [µM]	TGI [4] [µM]	TGI [5] [µM]	TGI [6] [µM]	TGI [7] [µM]	TGI [8] [µM]	TGI [9] [µM]	TGI [10] [µM]	GI50 [8]	GI50 [2] [µM]	GI50 [3]	GI50 [4]	GI50 [5]	GI50 [10] [µM]	GI50 [9]	GI50 [6]	GI50 [7] [µM]	GI50 [1] [µM]
Nc1[nH]c(=O)ncc1F	> 100	> 100	> 100	> 100	> 100	> 100	> 100	> 100		> 100										
COc1ccc2cccc(C(=O)c3ccc(C)c4c3CCC4)c2c1	85.3	> 100	77	53.3	> 100	> 100	> 100	38.8	> 100											
CCOC(=O)C1N(S(=O)(=O)c2ccc(C)cc2)CCC12c1ccccc1N(C(C)=O)C2C(/C=C/C(=O)OC)=C/C(=O)OC (stereo not given)		> 100	> 100		> 100	> 100	> 100	> 100	> 100											
COc1ccccc1/C=C\c1cnnc2ccccc12		> 10	> 10	> 10	> 10	> 10	> 10	> 10	> 10	> 10										
OCC(O)C(O)c1nn(-c2ccccc2)c2nc3cc(Cl)c(Cl)cc3nc12 (stereo not given)		75.6	> 100	> 100	> 100	57.4	> 100	58.1	> 100											
CCC1C(C)c2c([nH]c3ccccc23)C2C(=O)N(c3ccccc3)C(=O)C21 (stereo not given)	47.3	66.5	41.8	31.2	26.3	48.5	38.3	31.8	71.9											
Cn1c2ccccc2c(=Nc2ccccc2)c2c3ccccc3[nH]c21		1.99	20.4	3.49	3.11		8.63			3.32		0.755	2.73 µM	1.51 µM	1.24 µM	1.84			3.21	
Cc1cc(C)cc(-n2c3nc(=O)n(C)c(=O)c-3nc3ccccc32)c1		> 100	39	73	76.4	70.6	44.7	91.8	61											
Oc1ccc2oc3ncc(Cl)c(-c4ccccc4)c3c2c1		> 100	> 100	> 100	> 100	> 100	> 100	> 100	63.2	> 100	> 100 µM	> 100	> 100 µM	> 100 µM	> 100 µM	> 100	21.2 µM	> 100 µM	> 100	
O=C(CC(=O)N1N=C(c2ccccc2)C(N=Nc2ccc(C(=O)O)cc2)C1=O)Nc1ccc(F)cc1 (stereo not given)		> 100	90.2	> 100	> 100	> 100	77.1	> 100												
S=c1nc(-c2nc(=S)[nH]c3c2CCCCCCCCCC3)c2c([nH]1)CCCCCCCCCC2	> 100	> 100	> 100	> 100	> 100	> 100	> 100	> 100		> 100										
COC(=O)/C=C/C(=O)C1C(C(=O)OC)C2(C(=O)OC)CCC1(C(=O)OC)N2 (stereo not given)	> 100		> 100	> 100		> 100	> 100													
S=c1nc(-c2ccccc2)oc(=NC2CCCCC2)n1C1CCCCC1		14.2	19.6	13.5	18.7	8.21	12	20.8	8.87	8.82	4.89 µM	4.14	4.21 µM	3.35 µM	3.94 µM	3.36	1.75 µM	2.26 µM	2.14	
Cn1c2c([N+](=O)[O-])[se]nc2c(=O)n1-c1ccc([N+](=O)[O-])cc1	0.271	3.71	4.49	2.73	3.46	20.6	5.23	6.88	> 100											
CC(=O)NS(=O)(=O)c1ccc(NC(=O)COC(=O)c2cccc3c(=O)c4ccccc4[nH]c23)cc1		> 100	> 100	> 100	> 100	> 100	> 100	> 100	> 100											
C=CN1C(=O)OC(c2ccccc2)C1c1ccccc1 (stereo not given)	> 100	> 100	> 100	> 100	> 100	> 100	> 100	> 100	> 100			> 100	> 100 µM	> 100 µM	> 100 µM		> 100 µM	> 100 µM	> 100	
O=C(c1ccccc1)C1C(C(=O)c2ccccc2)N1Cc1ccccc1 (stereo not given)		> 100	> 100	> 100	95.1	> 100	> 100	> 100	> 100	68.3										
CCCCCCCCCCCC(=O)OCC1OC(n2cc(F)c(=O)[nH]c2=O)C(NC(=O)OCc2ccccc2)C(O)C1O (stereo not given)	41.2	> 100	93.6	43.5	34.7	43.2	79.9	32.4	41.7											
C=C(CN1CCN(c2ccccc2OC)CC1)c1ccc(C(=O)Nc2ccccc2N)cc1		4.95	3.24	31.3	0.0874	35.5	> 50	1.42		3.38	0.243 µM	0.856	0.447 µM	2.03 µM	0.0129 µM	1.27		11.2 µM	10.6	
COC(=O)C1=C(OC)c2cc3c(cc2C(c2cc(OC)c(OC)c(OC)c2)C1C(=O)OC)OCO3 (stereo not given)	> 100	> 100	> 100	> 100	> 100	> 100	> 100	> 100	> 100											
O=C(c1cc(O)ccc1O)c1ccccc1C(Cl)(Cl)Cl	> 100	> 100	> 100	> 100	> 100	> 100	> 100		> 100											
